Test results: ChEMBL document CHEMBL1201862, “PubChem BioAssay data set” (2004)
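All cell lines were grown in 96-well plates and treated with compound for 48 hours. Abbreviation: GI50, concentration required for 50% inhibition of growth.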 The source made the active and inactive calls. Rule as the data show it: active = GI50 up to about 1.1 µM and inactive = higher.

Assays:
Assay in all cases: DTP human tumour cell line panel, 48 h
[1] = test system: IGROV-1
[2] = test system: CCRF-CEM
[3] = test system: NCI-H23
[4] = test system: SK-MEL-28
[5] = test system: OVCAR-5
[6] = test system: Hs-578T
[7] = test system: TK-10
[8] = test system: SK-OV-3
[9] = test system: NCI-H460
[10] = test system: SF-268
[11] = test system: OVCAR-4
[12] = test system: HCC 2998
[13] = test system: SN12C
[14] = test system: OVCAR-3
[15] = test system: MCF7
[16] = test system: NCI-H522
[17] = test system: M14
[18] = test system: MOLT-4
[19] = test system: HCT-15
[20] = test system: UO-31

Structure (SMILES) | GI50 [1] | GI50 [2] | GI50 [3] | GI50 [4] | GI50 [5] | GI50 [6] | GI50 [7] | GI50 [8] | GI50 [9] | GI50 [10] | GI50 [11] | GI50 [12] | GI50 [13] | GI50 [14] | GI50 [15] | GI50 [16] | GI50 [17] | GI50 [18] | GI50 [19] | GI50 [20]
O=c1cc(N2CCCC2)[nH]c(=O)n1-c1ccc(Cl)cc1 | > 100 µM (inactive) | > 100 µM (inactive) | > 100 µM (inactive) | > 100 µM (inactive) | > 100 µM (inactive) | > 100 µM (inactive) | > 100 µM (inactive) | > 100 µM (inactive) | > 100 µM (inactive) | > 100 µM (inactive) | > 100 µM (inactive) | > 100 µM (inactive) | > 100 µM (inactive) | > 100 µM (inactive) | > 100 µM (inactive) | > 100 µM (inactive) | > 100 µM (inactive) | > 100 µM (inactive) | > 100 µM | –
C=C1C(=O)[C@@]23CC[C@@H]4[C@@]5(C)CCC[C@@]4(OC5=O)[C@@]2(C)CC[C@@H]1C3 | 1.72 µM (inactive) | 0.303 µM (active) | 1.94 µM (inactive) | 2.74 µM (inactive) | 2.12 µM (inactive) | 1.93 µM (inactive) | 1.11 µM (active) | 9.23 µM (inactive) | 1.41 µM (inactive) | 1.72 µM (inactive) | 2.38 µM (inactive) | 2.19 µM (inactive) | 3.3 µM (inactive) | 1.78 µM (inactive) | 0.893 µM (active) | 0.497 µM (active) | 2.17 µM (inactive) | 1.75 µM (inactive) | 0.67 µM | 1.9 µM (inactive)
CCN1CC2=C(N=c3s/c(=C\c4ccc(Cl)cc4)c(=O)n3C2c2ccc(Cl)cc2)/C(=C/c2ccc(Cl)cc2)C1 (centres undefined) | 67.3 µM (inactive) | 73.3 µM (inactive) | 63.1 µM (inactive) | > 100 µM (inactive) | > 100 µM (inactive) | 25.8 µM (inactive) | 18.9 µM (inactive) | 16.8 µM (inactive) | > 100 µM (inactive) | 24.9 µM (inactive) | > 100 µM (inactive) | > 100 µM (inactive) | – | > 100 µM (inactive) | > 100 µM (inactive) | > 100 µM (inactive) | 73.1 µM (inactive) | 64.6 µM (inactive) | > 100 µM | > 100 µM (inactive)
COC(=O)C1(Cc2ccccc2)Cc2ccccc2C1O (centres undefined) | > 100 µM (inactive) | > 100 µM (inactive) | 63 µM (inactive) | > 100 µM (inactive) | > 100 µM (inactive) | 55.1 µM (inactive) | 95.9 µM (inactive) | > 100 µM (inactive) | > 100 µM (inactive) | > 100 µM (inactive) | 29.8 µM (inactive) | > 100 µM (inactive) | > 100 µM (inactive) | > 100 µM (inactive) | > 100 µM (inactive) | 56.8 µM (inactive) | – | 39.4 µM (inactive) | > 100 µM | 62.4 µM (inactive)
COc1cc2c(cc1C)NC(=O)/C2=C\c1ccncc1 | 2.43 µM (inactive) | 2.75 µM (inactive) | 3.43 µM (inactive) | 11.1 µM (inactive) | 10.9 µM (inactive) | 3.6 µM (inactive) | 5.86 µM (inactive) | 3.96 µM (inactive) | 17.7 µM (inactive) | 3.83 µM (inactive) | > 100 µM (inactive) | 12.3 µM (inactive) | 6.15 µM (inactive) | 3.9 µM (inactive) | 3.03 µM (inactive) | 2.94 µM (inactive) | 3.98 µM (inactive) | – | 4.28 µM | 4.1 µM (inactive)
C/C=C/[C@@]1(OC(=O)c2ccccc2)C[C@@H]2CCCC[C@@H]21 | 17 µM (inactive) | 18.3 µM (inactive) | 16.5 µM (inactive) | 17.9 µM (inactive) | 17.1 µM (inactive) | 13.8 µM (inactive) | 15 µM (inactive) | 18.5 µM (inactive) | 18.4 µM (inactive) | 17.1 µM (inactive) | 17 µM (inactive) | 21.1 µM (inactive) | 17.5 µM (inactive) | – | 18.9 µM (inactive) | 15.7 µM (inactive) | 17.9 µM (inactive) | 17.9 µM (inactive) | 19.5 µM | 11 µM (inactive)
COC/C=C\[C@]1(O)CCCC[C@@H]1CC(OC)OC | > 100 µM (inactive) | 37.1 µM (inactive) | > 100 µM (inactive) | > 100 µM (inactive) | > 100 µM (inactive) | > 100 µM (inactive) | > 100 µM (inactive) | > 100 µM (inactive) | > 100 µM (inactive) | > 100 µM (inactive) | > 100 µM (inactive) | > 100 µM (inactive) | – | > 100 µM (inactive) | > 100 µM (inactive) | 67.5 µM (inactive) | > 100 µM (inactive) | 23.4 µM (inactive) | > 100 µM | > 100 µM (inactive)
CC1=NN(c2cccc(Cl)c2)C2(SCC(=O)N2c2nc3ccccc3s2)/C1=C\c1ccc(N(C)C)cc1 (centres undefined) | 54.7 µM (inactive) | 66.1 µM (inactive) | 31.8 µM (inactive) | > 100 µM (inactive) | > 100 µM (inactive) | 21 µM (inactive) | 33 µM (inactive) | 17.5 µM (inactive) | 20.9 µM (inactive) | 38.7 µM (inactive) | 93.5 µM (inactive) | 88.7 µM (inactive) | – | 48.5 µM (inactive) | 38.7 µM (inactive) | 65.8 µM (inactive) | > 100 µM (inactive) | 48.5 µM (inactive) | 56.1 µM | > 100 µM (inactive)
N/N=C1\CCCc2c1no[n+]2[O-] | > 100 µM (inactive) | > 100 µM (inactive) | > 100 µM (inactive) | > 100 µM (inactive) | > 100 µM (inactive) | > 100 µM (inactive) | > 100 µM (inactive) | > 100 µM (inactive) | > 100 µM (inactive) | > 100 µM (inactive) | > 100 µM (inactive) | > 100 µM (inactive) | > 100 µM (inactive) | > 100 µM (inactive) | > 100 µM (inactive) | > 100 µM (inactive) | > 100 µM (inactive) | > 100 µM (inactive) | > 100 µM | > 100 µM (inactive)
COc1ccc(/N=N/C(=N/NC(=O)c2ccccc2)c2ccc(N(CCC#N)CCC#N)cc2C)cc1 | 42.8 µM (inactive) | 36.7 µM (inactive) | 25.5 µM (inactive) | – | > 100 µM (inactive) | 23.4 µM (inactive) | > 100 µM (inactive) | 75.3 µM (inactive) | 23.1 µM (inactive) | 58.2 µM (inactive) | > 100 µM (inactive) | 12.4 µM (inactive) | 56.1 µM (inactive) | 17.7 µM (inactive) | 18.5 µM (inactive) | 10.7 µM (inactive) | 50.5 µM (inactive) | 49.5 µM (inactive) | 26.1 µM | 52 µM (inactive)
Cc1ccc(S(=O)(=O)N/N=C2\C3CC4CC(C3)C2C4)cc1 (centres undefined) | > 100 µM (inactive) | > 100 µM (inactive) | > 100 µM (inactive) | > 100 µM (inactive) | > 100 µM (inactive) | > 100 µM (inactive) | > 100 µM (inactive) | > 100 µM (inactive) | > 100 µM (inactive) | – | > 100 µM (inactive) | > 100 µM (inactive) | > 100 µM (inactive) | > 100 µM (inactive) | > 100 µM (inactive) | > 100 µM (inactive) | > 100 µM (inactive) | > 100 µM (inactive) | > 100 µM | > 100 µM (inactive)
O=C1C(NCCc2cc(Br)c(O)c(Br)c2)=CC(=O)c2ncccc21 | 4.15 µM (inactive) | 3.39 µM (inactive) | 0.659 µM (active) | 3.21 µM (inactive) | 6.52 µM (inactive) | 3.1 µM (inactive) | 17.1 µM (inactive) | 14.8 µM (inactive) | 2.37 µM (inactive) | 8.32 µM (inactive) | 6 µM (inactive) | 6.58 µM (inactive) | 3.8 µM (inactive) | 1.84 µM (inactive) | 4.09 µM (inactive) | 3.17 µM (inactive) | 2.51 µM (inactive) | 6.71 µM (inactive) | 5.79 µM | 5.87 µM (inactive)
Cc1ccccc1C(O)(c1nccn1C)c1nccn1C | > 100 µM (inactive) | > 100 µM (inactive) | – | > 100 µM (inactive) | > 100 µM (inactive) | > 100 µM (inactive) | > 100 µM (inactive) | > 100 µM (inactive) | > 100 µM (inactive) | > 100 µM (inactive) | > 100 µM (inactive) | > 100 µM (inactive) | > 100 µM (inactive) | > 100 µM (inactive) | > 100 µM (inactive) | > 100 µM (inactive) | > 100 µM (inactive) | > 100 µM (inactive) | > 100 µM | > 100 µM (inactive)
C=C1C2C[C@@H]3O[C@H]4C[C@H]5O[C@@]6(C[C@@H]7O[C@]8(C[C@H](C)[C@@H]9O[C@@H]%10CC(CO)O[C@@H]%10C[C@@H]9O8)C[C@H](C)[C@@H]7O6)C[C@H]5O[C@H]4[C@H](C)[C@H]3OC(=O)C[C@H]3CC[C@@H]4OC5[C@H]6O[C@]7(CC[C@H]8CC(=C)[C@H](CC[C@@H](C[C@H]1C)O2)O8)CC6O[C@@H]5[C@@H](O7)[C@H]4O3 (some centres undefined) | < 0.0001 µM (active) | < 0.0001 µM (active) | < 0.0001 µM (active) | – | < 0.0001 µM (active) | < 0.0001 µM (active) | < 0.0001 µM (active) | < 0.0001 µM (active) | < 0.0001 µM (active) | < 0.0001 µM (active) | > 0.635 µM (active) | < 0.0001 µM (active) | < 0.0001 µM (active) | < 0.0001 µM (active) | < 0.0001 µM (active) | < 0.0001 µM (active) | < 0.0001 µM (active) | < 0.0001 µM (active) | < 0.0001 µM | < 0.0001 µM (active)
